Results as given in US5929076A, “Cycloalkyl substituted imidazoles” (SmithKline Beecham Corporation, priority 1998, dated 1999).

Tested on: human PGHS-2 protein expression in LPS stimulated human monocytes
Assay: Prostoglandin endoperoxide synthase-2 (PGHS-2) assay
Assay type: cell-based
Settings: rank order potency similar to that for inhibiting cytokine production
Experimental: The following assay describes a method for determining the inhibitory effects of compounds of Formula (I) on human PGHS-2 protein expression in LPS stimulated human monocytes. Method: Human peripheral blood monocytes were isolated from buffy coats by centrifugation through Ficoll and Percoll gradients. Cells were seeded at 2×10^6 /well in 24 well plates and allowed to adhere for 1 hour in RPMI supplemented with 1% human AB serum, 20 mM L-glutamine, Penicillin-Streptomycin and 10 mM HEPES. Compounds were added at various concentrations and incubated at 37° C. for 10 minutes. LPS was added at 50 ng/well (to induce enzyme expression) and incubated overnight at 37° C. The supernatant was removed and cells washed once in cold PBS. The cells were lysed in 100 μl of cold lysis buffer(50 mM Tris/HCl pH 7.5, 150 mM NaCl, 1% NP40, 0.5% sodium deoxycholate, 0.1% SDS, 300 ug/ml DNAse, 0.1% TRITON X-100, 1 mM PMSF, 1 mM leupeptin, 1 mM pepstatin). The lysate was centrifuged (10,000×g for 10 min. at 4° C.) to remove debris and the soluble fraction was subjected to SDS PAGE. analysis (12% gel). Protein separated on the gel were transferred onto nitrocellulose membrane by electrophoretic means for 2 hours at 60 volts. The membrane was pretreated for one hour in PBS/0.1% Tween 20 with 5% non-fat dry milk. […]

## C[C@@H]1C[C@H]2[C@@H]3CCC4=CC(=O)C=C[C@]4(C)[C@@]3(F)[C@@H](O)C[C@]2(C)[C@@]1(O)C(=O)CO [Dexamethasone]
  inhibition of LPS induced PGHS-2 protein expression: active

## Fc1ccc(-c2nc3n(c2-c2ccncc2)CCS3)cc1 [6-(4-Fluorophenyl)-2,3-dihydro-5-(4-pyridinyl)imidazo[2,1-b]thiazole]
  inhibition of LPS induced PGHS-2 protein expression: active
